The source of these data is ChEMBL document CHEMBL5728358, “JAK1 selective inhibitors” (2021).

This experiment concerns the target Tyrosine-protein kinase JAK1 (Homo sapiens, UniProt P23458). Nature of the experiment: JAK enzyme was expressed as N-terminal GST fusion in insect cells and purified by glutathione-affinity and size-exclusion chromatographies. […] Phosphorylated and unphosphotylated peptides were separated and quantified by a Caliper LC3000 system (Caliper Life Sciences, MA) for calculating percent inhibition. The experiment is classed as organism-based.

Sequence of Tyrosine-protein kinase JAK1 (P23458 whole entry, the tested form may be a part): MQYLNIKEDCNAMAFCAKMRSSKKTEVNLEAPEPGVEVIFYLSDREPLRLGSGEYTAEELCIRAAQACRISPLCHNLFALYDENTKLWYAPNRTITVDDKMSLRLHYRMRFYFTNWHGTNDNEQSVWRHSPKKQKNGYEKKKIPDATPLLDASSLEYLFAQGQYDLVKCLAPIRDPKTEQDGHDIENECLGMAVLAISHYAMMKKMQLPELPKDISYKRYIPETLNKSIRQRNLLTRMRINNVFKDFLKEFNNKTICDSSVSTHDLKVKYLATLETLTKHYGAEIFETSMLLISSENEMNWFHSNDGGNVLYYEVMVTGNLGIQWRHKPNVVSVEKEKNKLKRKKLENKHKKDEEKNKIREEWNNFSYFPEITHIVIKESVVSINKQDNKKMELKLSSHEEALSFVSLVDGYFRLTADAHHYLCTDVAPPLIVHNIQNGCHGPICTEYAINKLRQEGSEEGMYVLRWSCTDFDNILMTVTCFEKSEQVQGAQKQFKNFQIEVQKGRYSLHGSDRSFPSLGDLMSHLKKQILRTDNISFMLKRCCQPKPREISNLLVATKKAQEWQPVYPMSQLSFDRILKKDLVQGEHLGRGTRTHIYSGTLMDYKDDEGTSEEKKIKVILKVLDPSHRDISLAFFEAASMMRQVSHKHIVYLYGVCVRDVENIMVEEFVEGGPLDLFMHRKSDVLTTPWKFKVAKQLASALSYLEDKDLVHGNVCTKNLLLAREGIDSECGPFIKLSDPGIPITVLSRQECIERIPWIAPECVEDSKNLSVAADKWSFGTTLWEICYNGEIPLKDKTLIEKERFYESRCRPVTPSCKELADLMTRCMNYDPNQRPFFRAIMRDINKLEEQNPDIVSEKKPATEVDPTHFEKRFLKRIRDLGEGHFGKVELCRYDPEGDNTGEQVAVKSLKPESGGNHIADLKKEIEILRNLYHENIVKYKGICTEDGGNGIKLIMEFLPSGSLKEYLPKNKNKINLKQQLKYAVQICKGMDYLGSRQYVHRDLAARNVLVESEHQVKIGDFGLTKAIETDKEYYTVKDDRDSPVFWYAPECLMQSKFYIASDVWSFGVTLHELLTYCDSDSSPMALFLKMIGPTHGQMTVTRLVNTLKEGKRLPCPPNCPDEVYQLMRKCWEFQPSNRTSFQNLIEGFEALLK

As a reminder, the IC50 is the point on the concentration scale where inhibition reaches its midpoint. Take `Cc1cnc(Nc2cccc(S(C)(=O)=O)c2F)nc1-c1c[nH]c2c(NC(=O)[C@@H](C)N3C[C@H](C)N[C@@H](C)C3)cccc12`: the IC50 is 3.4 nM.
